According to patent publication US12600709B2, “Nonpeptide somatostatin type 5 receptor agonists and uses thereof” (Crinetics Pharmaceuticals, Inc., priority 2019, dated 2026):
pEC50: −log10 of the molar value. Like-named read-outs stand apart in the source and are kept apart here.

Biological target: T1, human somatostatin receptor subtype 5 (Homo sapiens, UniProt P35346)
T1 construct: expressed in transfected cells
Assay: cAMP assay for SST5R (inhibition of cAMP in CHO-K1 cells)
Type: cell-based
Conditions: for pEC50: inhibition of cAMP via human SST5 receptor, read-out: SST5 potency
Source text: General overview: All five SSTR subtypes are Gi coupled G-protein coupled receptors (GPCRs) that lead to decreases in intracellular cyclic AMP (cAMP) when activated by an agonist. Therefore, measurement of intracellular cAMP levels can be used to assess whether compounds of the invention are agonists of SSTR subtypes (John Kelly, Troy Stevens, W. Joseph Thompson, and Roland Seifert, Current Protocols in Pharmacology, 2005, 2.2.1-2.2). One example of an intracellular cAMP assay is described below.
cAMP Assay Protocol for SST5R:
Four days prior to the assay, 2,000 Chinese hamster ovary cells (CHO-K1, ATCC #CCL-61) stably expressing the human somatostatin receptor subtype 5 are plated in each well of a 96-well tissue culture-treated plate in Ham's F12 growth media (ThermoFisher #10-080-CM) supplemented with 10% donor bovine serum (Gemini Bio-Products #100-506), 100 U/mL penicillin; 100 µg/mL streptomycin; 2 mM L-glutamine (Gemini Bio-Products #400-110) and 0.25 mg/mL G418 Sulfate (GoldBio #108321-42-2). The cells are cultured at 37° C., 5% CO2 and 95% humidity. On the day of the assay, the media is aspirated and the cells are treated with 50 μL of 1.6 μM NKH477 (Sigma #N3290) plus various dilutions of compounds of the invention in assay buffer [1× Hank's Balanced Salt Solution (ThermoFisher #SH3058802), 0.5 mM HEPES pH 7.4, 0.1% bovine serum albumin, 0.2 mM 3-Isobutyl-1-methylxanthine (IBMX, VWR #200002-790)]. The cells are incubated for 20 minutes at 37° C. […] The cells are treated with 50 μL of lysis buffer (HRTF cAMP kit, Cisbio) for 30 minutes and then the lysate is diluted to 250 μL with assay buffer. The lysate is transferred to 384-well plates and cAMP detection and visualization antibodies are added and incubated for 1-24 hours at room temperature. The time-resolved fluorescent signal is read with a Tecan M1000Pro multiplate reader. The intracellular cAMP concentrations are calculated by regression to a standard curve and are plotted vs. the concentration of the compounds of the invention and the EC50 of the compounds are calculated using standard methods. All data manipulations are in GraphPad Prism v6 or v7.

T1 sequence (P35346 whole entry): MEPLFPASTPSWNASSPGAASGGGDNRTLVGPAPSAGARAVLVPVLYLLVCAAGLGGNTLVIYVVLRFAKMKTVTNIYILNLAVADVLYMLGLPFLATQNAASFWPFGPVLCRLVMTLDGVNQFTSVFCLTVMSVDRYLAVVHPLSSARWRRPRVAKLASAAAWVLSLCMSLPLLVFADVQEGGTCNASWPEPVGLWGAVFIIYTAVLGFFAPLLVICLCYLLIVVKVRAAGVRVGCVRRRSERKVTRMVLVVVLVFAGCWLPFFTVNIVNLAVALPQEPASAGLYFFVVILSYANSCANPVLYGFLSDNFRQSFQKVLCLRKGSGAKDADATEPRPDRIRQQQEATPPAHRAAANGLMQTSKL

Compound | pEC50 (Table A) | Fold selectivity for SST5 vs SST2 (Table B, class symbols, SST5 receptor over SST2 receptor) | pEC50 (Table B)
C[C@]1(N)CCN(c2c(C(=O)NC3CCCOC3)cnc(C#N)c2-c2cc(F)cc(F)c2)C1 (stereo partly drawn) [1-89, 4-[(3S)-3-amino-3-methylpyrrolidin-1-yl]-6-cyano-5-(3,5-difluorophenyl)-N-(oxan-3-yl)pyridine-3-carboxamide] | > 8.00 |  | 
Cc1cccc2[nH]c(-c3cncc(C(=O)NC4CCOC4)c3N3CC[C@](C)(N)C3)nc12 (stereo partly drawn) [2-5, 4-[(3S)-3-amino-3-methylpyrrolidin-1-yl]-5-(4-methyl-1H-1,3-benzodiazol-2-yl)-N-(oxolan-3-yl)pyridine-3-carboxamide] | 6.00 to 7.00 |  | 
N#Cc1ncc(C(=O)N2CCCCC2)c(N2CC[C@H](N)C2)c1-c1cc(F)cc(F)c1 [1-80, 4-[(3S)-3-aminopyrrolidin-1-yl]-3-(3,5-difluorophenyl)-5-(piperidine-1-carbonyl)pyridine-2-carbonitrile] | 6.00 to 7.00 |  | 
COc1ncc(C(=O)NC2CCC(F)(F)CC2)c(N2CC[C@](C)(N)C2)c1-c1cc(F)cc(F)c1 [1-144, 4-[(3S)-3-amino-3-methylpyrrolidin-1-yl]-N-(4,4-difluorocyclohexyl)-5-(3,5-difluorophenyl)-6-methoxypyridine-3-carboxamide] | > 8.00 |  | 
Cc1cnc(C(=O)N[C@@H](C)C2CC2)c(N2CC[C@](C)(N)C2)c1-c1cc(F)cc(F)c1 [4-2, 3-[(3S)-3-amino-3-methylpyrrolidin-1-yl]-N-[(1S)-1-cyclopropylethyl]-4-(3,5-difluorophenyl)-5-methylpyridine-2-carboxamide] | 7.00 to 8.00 |  | 
CC(C)(NC(=O)c1cncc(-c2cc(F)cc(F)c2)c1N1CC[C@](C)(N)C1)C1CC1 [1-40, 4-[(3S)-3-amino-3-methylpyrrolidin-1-yl]-N-(2-cyclopropylpropan-2-yl)-5-(3,5-difluorophenyl)pyridine-3-carboxamide] | 7.00 to 8.00 |  | 
Cc1cccc2[nH]c(-c3cncc(C(=O)N4CCC(F)(F)C4)c3N3CC[C@](C)(N)C3)nc12 [2-25, (3S)-1-[3-(3,3-difluoropyrrolidine-1-carbonyl)-5-(4-methyl-1H-1,3-benzodiazol-2-yl)pyridin-4-yl]-3-methylpyrrolidin-3-amine] | 7.00 to 8.00 |  | 
N#Cc1ncc(C(=O)NC23CC(C2)C3)c(N2CC[C@](N)(CO)C2)c1-c1cc(F)cc(F)c1 (single isomer, unassigned) [1-99] | < 6.00 |  | 
N#Cc1ncc(C(=O)NC23CC(C2)C3)c(N2C[C@H](N)[C@@H](F)C2)c1-c1cc(F)cc(F)c1 (single isomer, unassigned) [1-102] | 7.00 to 8.00 |  | 
C[C@]1(N)CCN(c2c(C(=O)NC3CCOCC3)cnc(C#N)c2-c2cc(F)cc(F)c2)C1 [1-88, 4-[(3S)-3-amino-3-methylpyrrolidin-1-yl]-6-cyano-5-(3,5-difluorophenyl)-N-(oxan-4-yl)pyridine-3-carboxamide] | > 8.00 |  | 
C[C@]1(N)CCN(c2c(C(=O)NCC(F)(F)F)cncc2-c2cc(F)cc(F)c2)C1 [1-28, 4-[(3S)-3-amino-3-methylpyrrolidin-1-yl]-5-(3,5-difluorophenyl)-N-(2,2,2-trifluoroethyl)pyridine-3-carboxamide] | 7.00 to 8.00 |  | 
Cc1cccc2[nH]c(-c3cncc(C(=O)NC4CCCC4)c3N3CC[C@](C)(N)C3)nc12 [2-4, 4-[(3S)-3-amino-3-methylpyrrolidin-1-yl]-N-cyclopentyl-5-(4-methyl-1H-1,3-benzodiazol-2-yl)pyridine-3-carboxamide] | > 8.00 |  | 
Cc1cc(F)cc(-c2cncc(C(=O)NCC3CC3)c2N2CC[C@](C)(N)C2)c1 [1-26, 4-[(3S)-3-amino-3-methylpyrrolidin-1-yl]-N-(cyclopropylmethyl)-5-(3-fluoro-5-methylphenyl)pyridine-3-carboxamide] | > 8.00 |  | 
Cc1cccc2[nH]c(-c3cncc(C(=O)NC45CCC(CC4)C5)c3N3CC[C@](C)(N)C3)nc12 [2-33, 4-[(3S)-3-amino-3-methylpyrrolidin-1-yl]-N-{bicyclo[2.2.1]heptan-1-yl}-5-(4-methyl-1H-1,3-benzodiazol-2-yl)pyridine-3-carboxamide] | > 8.00 |  | 
CC1(NC(=O)c2cncc(-c3cccc(C#N)c3)c2N2CC[C@H](N)C2)CCC1 [1-8, 4-[(3S)-3-aminopyrrolidin-1-yl]-5-(3-cyanophenyl)-N-(1-methylcyclobutyl)pyridine-3-carboxamide] | 6.00 to 7.00 |  | 
C[C@]1(N)CCN(c2c(C(=O)NCC3CC(F)(F)C3)cncc2-c2cc(F)cc(F)c2)C1 [1-50, 4-[(3S)-3-amino-3-methylpyrrolidin-1-yl]-N-[(3,3-difluorocyclobutyl)methyl]-5-(3,5-difluorophenyl)pyridine-3-carboxamide] | > 8.00 |  | 
C[C@H](NC(=O)c1cnc(OC2CC2)c(-c2cc(F)cc(F)c2)c1N1CC[C@](C)(N)C1)C1CC1 [1-191, 4-[(3S)-3-amino-3-methylpyrrolidin-1-yl]-6-cyclopropoxy-N-[(1S)-1-cyclopropylethyl]-5-(3,5-difluorophenyl)pyridine-3-carboxamide] | > 8.00 |  | 
Cn1ccnc1CNC(=O)c1cnc(C#N)c(-c2cc(F)cc(F)c2)c1N1CC[C@](C)(N)C1 [1-106, 4-[(3S)-3-amino-3-methylpyrrolidin-1-yl]-6-cyano-5-(3,5-difluorophenyl)-N-[(1-methyl-1H-imidazol-2-yl)methyl]pyridine-3-carboxamide] | 7.00 to 8.00 |  | 
COc1ncc(C(=O)N[C@@H](C)C(F)(F)F)c(N2CC[C@](C)(N)C2)c1Br (single isomer, unassigned) [1-274] | < 6.00 |  | 
CC1(CNC(=O)c2cncc(-c3cc(F)cc(F)c3)c2N2CC[C@](C)(N)C2)CC1 [1-32, 4-[(3S)-3-amino-3-methylpyrrolidin-1-yl]-5-(3,5-difluorophenyl)-N-[(1-methylcyclopropyl)methyl]pyridine-3-carboxamide] | > 8.00 |  | 
Cc1cc(F)cc(-c2cncc(C(=O)NC3(C(F)(F)F)CCCC3)c2N2CC[C@](C)(N)C2)c1 [1-15, 4-[(3S)-3-amino-3-methylpyrrolidin-1-yl]-5-(3-fluoro-5-methylphenyl)-N-[1-(trifluoromethyl)cyclopentyl]pyridine-3-carboxamide] | > 8.00 |  | 
C[C@H](NC(=O)c1cnc(C(F)(F)F)c(-c2ccc(F)c(F)c2)c1N1CC[C@](C)(N)C1)C1CC1 [1-209, 4-[(3S)-3-amino-3-methylpyrrolidin-1-yl]-N-[(1S)-1-cyclopropylethyl]-5-(3,4-difluorophenyl)-6-(trifluoromethyl)pyridine-3-carboxamide] | > 8.00 | +++ (+++=>500) | > 8.00
CC(NC(=O)c1cnc(C#N)c(-c2cc(F)cc(F)c2)c1N1CC[C@](C)(N)C1)c1cn(C)nn1 (stereo partly drawn) [1-133, 4-[(3S)-3-amino-3-methylpyrrolidin-1-yl]-6-cyano-5-(3,5-difluorophenyl)-N-[1-(1-methyl-1H-1,2,3-triazol-4-yl)ethyl]pyridine-3-carboxamide] | 6.00 to 7.00 |  | 
COc1ncc(C(=O)N[C@@H](C)C(F)(F)F)c(N2CC[C@](C)(N)C2)c1-c1cnc(C)nc1 [1-185, 4-[(3S)-3-amino-3-methylpyrrolidin-1-yl]-6-methoxy-5-(2-methylpyrimidin-5-yl)-N-[(2S)-1,1,1-trifluoropropan-2-yl]pyridine-3-carboxamide] | 7.00 to 8.00 |  | 
C[C@]1(N)CCN(c2cc(C#N)ncc2C(=O)NC23CC(C2)C3)C1 [1-75, 4-[(3S)-3-amino-3-methylpyrrolidin-1-yl]-N-{bicyclo[1.1.1]pentan-1-yl}-6-cyanopyridine-3-carboxamide] | 6.00 to 7.00 |  | 
COC(=O)c1cnc(C(=O)N[C@@H](C)C2CC2)c(N2CC[C@](C)(N)C2)c1-c1cc(F)cc(F)c1 [4-4, methyl 5-[(3S)-3-amino-3-methylpyrrolidin-1-yl]-6-{[(1S)-1-cyclopropylethyl]carbamoyl}-4-(3,5-difluorophenyl)pyridine-3-carboxylate] | 7.00 to 8.00 |  | 
COCC1(N)CCN(c2c(C(=O)NC34CC(C3)C4)cncc2-c2cc(F)cc(F)c2)C1 (stereo not shown) [1-36, 4-[3-amino-3-(methoxymethyl)pyrrolidin-1-yl]-N—{bicyclo[1.1.1]pentan-1-yl}-5-(3,5-difluorophenyl)pyridine-3-carboxamide] | 7.00 to 8.00 |  | 
C[C@H](NC(=O)c1cnc(C#N)c(-c2cc(F)cc(F)c2)c1N1CC[C@H](N)C1)c1ccccn1 [1-95, 4-[(3S)-3-aminopyrrolidin-1-yl]-6-cyano-5-(3,5-difluorophenyl)-N-[(1S)-1-(pyridin-2-yl)ethyl]pyridine-3-carboxamide] | > 8.00 |  | 
C[C@]1(N)CCN(c2c(C(=O)NC(C3CC3)C3CC3)ccnc2-c2cc(F)cc(F)c2)C1 [3-4, 3-[(3S)-3-amino-3-methylpyrrolidin-1-yl]-N-(dicyclopropylmethyl)-2-(3,5-difluorophenyl)pyridine-4-carboxamide] | > 8.00 |  | 
